In patent US9139557B2, “Carboxamide compounds and their use as calpain inhibitors” (Abbott GmbH & Co. KG, priority 2006, dated 2015):

Key:
Assay type in all cases: biochemical
calpain-I = target: T1, calpain-I (Homo sapiens, UniProt P07384); experiment: Calpain I enzyme inhibition in vitro (kinetic fluorescence assay)
T1 construct: calpain-I—isolated from human erythrocytes; purchased Calbiochem 208713; host or cells: human erythrocytes (tissue isolate)
T1 sequence (P07384 2-714 limits assumed): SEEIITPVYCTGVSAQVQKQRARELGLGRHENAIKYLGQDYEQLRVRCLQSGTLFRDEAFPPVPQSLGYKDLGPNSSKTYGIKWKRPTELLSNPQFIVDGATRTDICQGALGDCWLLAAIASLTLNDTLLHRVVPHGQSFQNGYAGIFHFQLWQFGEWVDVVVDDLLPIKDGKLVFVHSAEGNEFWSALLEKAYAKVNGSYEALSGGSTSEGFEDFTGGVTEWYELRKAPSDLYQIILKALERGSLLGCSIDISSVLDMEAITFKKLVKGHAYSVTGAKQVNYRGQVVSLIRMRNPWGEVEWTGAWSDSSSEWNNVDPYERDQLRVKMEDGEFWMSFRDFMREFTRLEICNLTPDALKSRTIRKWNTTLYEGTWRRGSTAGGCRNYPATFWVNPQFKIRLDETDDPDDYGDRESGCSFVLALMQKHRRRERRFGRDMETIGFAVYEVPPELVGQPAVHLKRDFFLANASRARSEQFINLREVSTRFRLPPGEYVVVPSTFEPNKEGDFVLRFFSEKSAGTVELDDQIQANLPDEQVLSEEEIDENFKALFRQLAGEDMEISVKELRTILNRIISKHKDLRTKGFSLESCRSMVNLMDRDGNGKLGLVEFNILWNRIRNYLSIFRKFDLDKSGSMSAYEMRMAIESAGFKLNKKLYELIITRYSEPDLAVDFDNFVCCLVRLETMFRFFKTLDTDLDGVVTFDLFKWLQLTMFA
T1 sequence (P04632 1-268 partner): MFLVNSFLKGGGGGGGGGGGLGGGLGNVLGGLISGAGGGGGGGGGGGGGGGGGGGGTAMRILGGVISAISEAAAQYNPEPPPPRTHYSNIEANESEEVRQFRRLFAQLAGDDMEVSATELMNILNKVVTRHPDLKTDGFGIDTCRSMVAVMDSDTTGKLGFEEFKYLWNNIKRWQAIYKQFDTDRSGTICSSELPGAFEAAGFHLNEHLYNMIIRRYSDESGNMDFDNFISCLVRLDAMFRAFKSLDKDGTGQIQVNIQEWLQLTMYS
Description: Testing for blockade of the corresponding enzymic activities was carried out by means of kinetic fluorescence assays (excitation 390 nm, emission 460 nm).
Apparent Ki values were calculated from the experimentally determined IC50 values by the Cheng-Prussoff relation assuming a reversible competitive enzyme inhibition. The Km values of the substrates used under the assay conditions indicated above were: 90 μM (Z-Phe-Arg-AMC, cathepsin B), 10 μM (Z-Gly-Pro-Arg-AMC, cathepsin K), 2 μM (Z-Phe-Arg-AMC, cathepsin L), and 30 μM (Z-Val-Val-Arg-AMC, cathepsin S).
The indicated Ki values are averages of the inhibition constants calculated on the basis of 2 to 4 independent dose-effect plots.
• 1. Calpain I: • 20 nM calpain-I—isolated from human erythrocytes (Calbiochem #208713), 100 μM Suc-Leu-Tyr-AMC (Bachem #1-1355) as substrate in buffer with 62 mM imidazole, 0.3 mM CaCl2, 0.10% CHAPS, 0.05% BSA, 1 mM DTT at pH 7.3 and room temperature. • 2. Cathepsin B: • 0.25 nM cathepsin B—isolated from human liver (Calbiochem #219362), 100 μM Z-Phe-Arg-AMC (Bachem #1-1160) as substrate 50 mM MES, 2 mM EDTA, 0.05% Brij 35, 2.5 mM L-cysteine, pH 6.0, room temperature. • 3. […]

cathepsin S = target: T2, cathepsin S (Homo sapiens, UniProt P25774); experiment: Cathepsin S enzyme inhibition in vitro (kinetic fluorescence assay); conditions: Ki(cathepsin S)/Ki(calpain) ratio
T2 construct: purchased Calbiochem 219343; host or cells: E. coli
Procedure, shortened: (§1)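 Kinetic fluorescence (ex 390/em 460 nm), RT. Calpain-I: 20 nM erythrocyte-derived, 100 μM Suc-Leu-Tyr-AMC, imidazole/CaCl2, pH 7.3. Cathepsins, pH 6.0 MES/EDTA/cysteine: B 0.25 nM liver, 100 μM Z-Phe-Arg-AMC; L 1 nM liver, 2 μM Z-Phe-Arg-AMC; S 0.5 nM recombinant, 20 μM Z-Val-Val-Arg-AMC. Cheng-Prusoff Ki, mean of 2–4 curves.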

cathepsin L = target: T3, cathepsin L (Homo sapiens, UniProt P07711); experiment: Cathepsin L enzyme inhibition in vitro (kinetic fluorescence assay); conditions: Ki(cathepsin L)/Ki(calpain) ratio
T3 construct: cathepsin L—isolated from human liver; purchased Calbiochem 219402; host or cells: human liver (tissue isolate)
Procedure, shortened: as §1

cathepsin K = target: T4, cathepsin K (Homo sapiens, UniProt P43235); experiment: Cathepsin K enzyme inhibition in vitro (kinetic fluorescence assay); conditions: Ki(cathepsin K)/Ki(calpain) ratio
T4 construct: purchased Calbiochem 342001; host or cells: E. coli
T4 sequence (P43235 115-329): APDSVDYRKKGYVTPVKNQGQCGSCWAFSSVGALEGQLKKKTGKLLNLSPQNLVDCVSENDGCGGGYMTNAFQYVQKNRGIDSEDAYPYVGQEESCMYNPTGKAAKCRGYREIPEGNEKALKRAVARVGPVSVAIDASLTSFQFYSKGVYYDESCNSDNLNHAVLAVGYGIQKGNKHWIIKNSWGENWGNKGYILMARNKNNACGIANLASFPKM

cathepsin B = target: T5, cathepsin B (Homo sapiens, UniProt P07858); experiment: Cathepsin B enzyme inhibition in vitro (kinetic fluorescence assay); conditions: Ki(cathepsin B)/Ki(calpain) ratio
T5 construct: cathepsin B—isolated from human liver; purchased Calbiochem 219362; host or cells: human liver (tissue isolate)
Procedure, shortened: as §1

T2 sequence (P25774 115-331): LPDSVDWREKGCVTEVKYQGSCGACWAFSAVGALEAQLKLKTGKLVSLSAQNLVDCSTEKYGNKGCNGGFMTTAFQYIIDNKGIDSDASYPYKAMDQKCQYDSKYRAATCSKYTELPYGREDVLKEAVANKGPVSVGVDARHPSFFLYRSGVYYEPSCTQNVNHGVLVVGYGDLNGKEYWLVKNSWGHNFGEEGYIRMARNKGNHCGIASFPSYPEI
T3 sequence (P07711 114-333): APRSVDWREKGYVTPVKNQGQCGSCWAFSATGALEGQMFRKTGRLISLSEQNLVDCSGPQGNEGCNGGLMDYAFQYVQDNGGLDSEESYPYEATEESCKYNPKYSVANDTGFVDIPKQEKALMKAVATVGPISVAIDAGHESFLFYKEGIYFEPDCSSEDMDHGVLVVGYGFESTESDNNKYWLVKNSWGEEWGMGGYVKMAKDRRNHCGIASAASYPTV

| Compound | Ki (calpain-I) | Sel cat. S (cathepsin S) | Sel cat. L (cathepsin L) | Sel cat. K (cathepsin K) | Sel cat. B (cathepsin B) |
| --- | --- | --- | --- | --- | --- |
| Cl.NC(=O)C(=O)C(Cc1ccccc1)NC(=O)c1cccnc1-n1cnc(-c2ccc(CN3CCOCC3)cc2)c1 (centres unmarked) [Example 26, N-(3-Amino-1-benzyl-2,3-dioxopropyl)-2-{4-[4-(morpholin-4-ylmethyl)phenyl]-1H-imidazol-1-yl}nicotinamide hydrochloride] | < 0.04 µM | ++ (++ means a Ki(cathepsin S)/Ki(calpain) ratio of ≧100) |  |  |  |
| NC(=O)C(=O)C(Cc1ccccc1)NC(=O)c1cccnc1-n1cc2c(n1)-c1ccccc1SC2 (centres unmarked) [Example 173, N-[3-Amino-2,3-dioxo-1-(phenylmethyl)propyl]-2-thiochromeno[4,3-c]pyrazol-2(4H)-ylpyridine-3-carboxamide] |  | ++ (++ means a Ki(cathepsin S)/Ki(calpain) ratio of ≧100) | ++ (++ means a Ki(cathepsin L)/Ki(calpain) ratio of ≧50) | + (+ means 10≦Ki(cathepsin K)/Ki(calpain)<30) | + (+ means 10≦Ki(cathepsin B)/Ki(calpain)<30) |
| NC(=O)C(=O)C(Cc1ccccc1)NC(=O)c1cccnc1-n1ccc(-c2cccc(Cl)c2)n1 (centres unmarked) [Example 70, N-(3-Amino-1-benzyl-2,3-dioxopropyl)-2-[3-(3-chlorophenyl)-1H-pyrazol-1-yl]nicotinamide] |  | ++ (++ means a Ki(cathepsin S)/Ki(calpain) ratio of ≧100) | ++ (++ means a Ki(cathepsin L)/Ki(calpain) ratio of ≧50) | + (+ means 10≦Ki(cathepsin K)/Ki(calpain)<30) | + (+ means 10≦Ki(cathepsin B)/Ki(calpain)<30) |
| NC(=O)C(=O)C(Cc1ccccc1)NC(=O)c1cccnc1-n1ccc(-c2cc(C(F)(F)F)ccc2CN2CCOCC2)n1 (centres unmarked) [Example 163, N-[3-Amino-2,3-dioxo-1-(phenylmethyl)propyl]-2-{3-[2-(morpholin-4-ylmethyl)-5-(trifluoromethyl)phenyl]-1H-pyrazol-1-yl}pyridine-3-carboxamide] |  | ++ (++ means a Ki(cathepsin S)/Ki(calpain) ratio of ≧100) | + (+ means 30≦Ki(cathepsin L)/Ki(calpain)<50) | + (+ means 10≦Ki(cathepsin K)/Ki(calpain)<30) | + (+ means 10≦Ki(cathepsin B)/Ki(calpain)<30) |
| NC(=O)C(=O)C(Cc1ccccc1)NC(=O)c1cccnc1-n1ccc(-c2cccc3c2OC(F)(F)O3)n1 (centres unmarked) [Example 119, N-[3-Amino-2,3-dioxo-1-(phenylmethyl)propyl]-2-[3-(2,2-difluoro-1,3-benzodioxol-4-yl)-1H-pyrazol-1-yl]pyridine-3-carboxamide] |  | ++ (++ means a Ki(cathepsin S)/Ki(calpain) ratio of ≧100) | ++ (++ means a Ki(cathepsin L)/Ki(calpain) ratio of ≧50) | ++ (++ means a Ki(cathepsin K)/Ki(calpain) ratio of ≧30) | ++ (++ means a Ki(cathepsin B)/Ki(calpain) ratio of ≧30) |
| NC(=O)C(=O)C(Cc1ccccc1)NC(=O)c1cccnc1-n1ccc(-c2c(F)cccc2F)n1 (centres unmarked) [Example 85, N-[3-Amino-2,3-dioxo-1-(phenylmethyl)propyl]-2-[3-(2,6-difluorophenyl)-1H-pyrazol-1-yl]pyridine-3-carboxamide] |  | ++ (++ means a Ki(cathepsin S)/Ki(calpain) ratio of ≧100) | ++ (++ means a Ki(cathepsin L)/Ki(calpain) ratio of ≧50) | ++ (++ means a Ki(cathepsin K)/Ki(calpain) ratio of ≧30) | + (+ means 10≦Ki(cathepsin B)/Ki(calpain)<30) |
| NC(=O)C(=O)C(Cc1ccc(OC(F)(F)F)cc1)NC(=O)c1cccnc1-n1ccc(-c2ccccc2)n1 (centres unmarked) [Example 133] |  | ++ (++ means a Ki(cathepsin S)/Ki(calpain) ratio of ≧100) | ++ (++ means a Ki(cathepsin L)/Ki(calpain) ratio of ≧50) | ++ (++ means a Ki(cathepsin K)/Ki(calpain) ratio of ≧30) | ++ (++ means a Ki(cathepsin B)/Ki(calpain) ratio of ≧30) |
